17 compounds from ChEMBL document CHEMBL4184157, “Phenoxypropanolamine derivatives as selective inhibitors of the 20S proteasome β1 and β5 subunits” (Bioorg Med Chem Lett, 2017) can be followed below.

The species named for experiment [1] is Oryctolagus cuniculus. The experiment in a line: Inhibition of trypsin-like activity of rabbit erythrocyte 20S proteasome beta2 subunit at 100 uM using BocLRR-AMC as substrate preincubated for 5 mins followed by substrate addition measured after 45 mins by fluorescence assay.
Experiment [2] is described as follows: Inhibition of chymotrypsin-like activity of rabbit erythrocyte 20S proteasome beta5 subunit using Suc-LLVY-AMC as substrate preincubated for 15 mins followed by substrate addition measured after 45 mins by fluorescence assay. Set-up: species or system Oryctolagus cuniculus.
Experiment [3] is described as follows: Inhibition of caspase-like activity of rabbit erythrocyte 20S proteasome beta1 subunit using Z-LLE-betaNA as substrate preincubated for 15 mins followed by substrate addition measured after 45 mins by fluorescence assay. Set-up: species or system Oryctolagus cuniculus.
For experiment [4], the target named is Cathepsin B (Homo sapiens) (UniProt P07858). Put plainly: Inhibition of human hepatocyte cathepsin B protease using Z-RR-AMC as substrate by fluorescence assay.
The target of experiment [5] is T1, Calpain-1 catalytic subunit (Homo sapiens) (UniProt P07384).
T1 sequence (whole entry): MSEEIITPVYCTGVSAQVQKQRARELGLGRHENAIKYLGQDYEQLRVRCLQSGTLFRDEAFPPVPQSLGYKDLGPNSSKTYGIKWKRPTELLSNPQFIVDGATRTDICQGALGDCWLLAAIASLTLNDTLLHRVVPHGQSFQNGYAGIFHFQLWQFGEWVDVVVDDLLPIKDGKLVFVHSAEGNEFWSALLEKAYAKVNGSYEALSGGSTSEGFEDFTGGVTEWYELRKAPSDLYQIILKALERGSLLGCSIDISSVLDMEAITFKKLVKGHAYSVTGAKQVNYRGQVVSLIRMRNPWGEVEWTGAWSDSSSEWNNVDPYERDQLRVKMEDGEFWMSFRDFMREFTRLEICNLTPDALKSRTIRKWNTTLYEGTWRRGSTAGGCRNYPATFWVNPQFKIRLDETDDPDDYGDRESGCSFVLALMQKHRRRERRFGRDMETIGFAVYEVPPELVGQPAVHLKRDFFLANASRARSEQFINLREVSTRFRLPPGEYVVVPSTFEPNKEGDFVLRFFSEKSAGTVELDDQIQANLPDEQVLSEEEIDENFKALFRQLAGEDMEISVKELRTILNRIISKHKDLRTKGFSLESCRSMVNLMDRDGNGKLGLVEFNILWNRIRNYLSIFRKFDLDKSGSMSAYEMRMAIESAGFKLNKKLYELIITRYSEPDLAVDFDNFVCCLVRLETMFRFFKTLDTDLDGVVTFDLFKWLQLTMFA
Put plainly: Inhibition of human erythrocyte calpain 1 protease using Suc-LLVY-AMC as substrate by fluorescence assay.

The species named for experiment [6] is Oryctolagus cuniculus. The experiment in a line: Inhibition of caspase-like activity of rabbit erythrocyte 20S proteasome beta1 subunit at 100 uM using Z-LLE-betaNA as substrate preincubated for 15 mins followed by substrate addition measured after 45 mins by fluorescence assay.
Experiment [7] is filed under the species Oryctolagus cuniculus. The experiment in a line: Inhibition of chymotrypsin-like activity of rabbit erythrocyte 20S proteasome beta5 subunit at 100 uM using Suc-LLVY-AMC as substrate preincubated for 15 mins followed by substrate addition measured after 45 mins by fluorescence assay.
The test system of experiment [8] is Rattus norvegicus. Put plainly: In vivo antiproliferative activity against Wistar rat bone marrow cells from femora assessed as inhibition of cell division measured by counting metaphase plates administered at 0.2 mg per rat, ip by light microscopic method. Set-up: scale not given: the % may be the effect or the level left.
For experiment [9], the system named is HeLa. The experiment in a line: Antiproliferative activity against human HeLa cells after 72 hrs by XTT assay. In kind it is functional, cell-based. In general terms: Tetrazolium dyes change colour on reduction, which living cells bring about.
Experiment [10] has as its system HeLa. The experiment in a line: Cytotoxicity against human HeLa cells at 10 uM after 72 hrs by XTT assay. The experiment is classed as functional, cell-based.
For experiment [11], the system named is Rattus norvegicus. Put plainly: In vivo antiproliferative activity against ip dosed Wistar rat bone marrow cells from femora assessed as inhibition of cell division measured by counting metaphase plates by light microscopic method. The experiment is classed as functional, organism-based.
The subject of experiment [12] is Rattus norvegicus. Put plainly: In vivo antiproliferative activity against Wistar rat bone marrow cells from femora assessed as inhibition of cell division measured by counting metaphase plates administered at 2 mg per rat, ip by light microscopic method. More on the design: scale not given: the % may be the effect or the level left.
For experiment [13], the system named is HeLa. The experiment in a line: Antiproliferative activity against human HeLa cells at 10 uM after 72 hrs by microscopic method. In kind it is functional, cell-based.
Experiment [14] concerns HeLa. Put plainly: Antiproliferative activity against human HeLa cells assessed as fragmented nuclei at 50 uM after 72 hrs by microscopic method. The experiment is classed as functional, cell-based.

The structures appear in SMILES notation. The source made the active and inactive calls. The rule behind the calls is not given here.

One may read the inhibition as how much of the control response was suppressed. The term IC50 denotes the concentration at which inhibition is half-maximal. The compound `COc1ccccc1OCC(O)CNCC1(c2cccs2)CCCC1` (stereo not drawn) had an inhibition in the experiment listed under Oryctolagus cuniculus [1] of 48%. The values for the IC50 in [2] and in experiment [3] were 37.2 µM and 36 µM, respectively.

On to `OC(CNCC1(c2cccs2)CCCCC1)COc1ccc(Cl)cc1` (stereo not drawn), for which the inhibition result in the experiment filed under Oryctolagus cuniculus [1] is “inactive”. Further, the IC50 in experiment [2] is 18 µM; in experiment [3] it was 12.8 µM.

In the experiment listed under Oryctolagus cuniculus [1], `OC(CNCC1(c2cccs2)CCCC1)COc1ccccc1` (stereo not drawn) returned an inhibition of 41%. Besides, the inhibition result in [4] and in [5] was “inactive” throughout. Besides, the IC50 in experiment [2] came to 19.3 µM; in experiment [3], 66.5 µM.

As to `OC(CNCC1(c2cccs2)CCCCC1)COc1ccccc1` (stereo not drawn), in the experiment listed under Oryctolagus cuniculus [1], the inhibition entry was “inactive”. Moreover, the figures for the IC50 in [2] and in [3] were 14.9 µM and 18.1 µM, respectively.

Consider `Cc1ccc(OCC(O)CNCC2(c3cccs3)CCOCC2)cc1` (stereo not drawn), for which, in the experiment filed under Oryctolagus cuniculus [1], the inhibition was 49%. This compound had an IC50 in experiment [2] of 80 µM. Besides, in the experiment filed under Oryctolagus cuniculus [6], the inhibition entry was “inactive”.

As for `NCC1(c2cccs2)CCCC1`, the inhibition result in the experiment listed under Oryctolagus cuniculus [1] and in the experiment filed under Oryctolagus cuniculus [6] was “inactive” in each case. The same compound gave an inhibition in the experiment listed under Oryctolagus cuniculus [7] of 26%.

Take `Cc1ccc(OCC(O)CNCC2(c3cccs3)CCCCC2)cc1` (stereo not drawn): in the experiment listed under Oryctolagus cuniculus [1], the inhibition came out at 36%. Besides, the IC50 in experiment [2] came out at 15.5 µM; in experiment [3], 30 µM.

As to `Cc1ccc(OCC(O)CNCC2(c3cccs3)CCCC2)cc1` (stereo not drawn), the inhibition in the experiment listed under Oryctolagus cuniculus [1] was found to be 38%. Further, the IC50 came out at 15.4 µM in experiment [2] and 24.2 µM in [3].

As to `NCC1(c2cccs2)CCCCC1`, the inhibition result in the experiment listed under Oryctolagus cuniculus [1], in the experiment filed under Oryctolagus cuniculus [7] and in the experiment filed under Oryctolagus cuniculus [6] was “inactive” throughout.

Take `NCC1(c2cccs2)CCOCC1`: the inhibition entry in the experiment filed under Oryctolagus cuniculus [1], in the experiment listed under Oryctolagus cuniculus [7] and in the experiment listed under Oryctolagus cuniculus [6] was “inactive” throughout.

As to `OC(CNCC1(c2cccs2)CCCC1)COc1ccc(Cl)cc1` (stereo not drawn), the Activity was 50% with Rattus norvegicus [8], “Dose-dependent effect” in the experiment with HeLa [9], “Dose-dependent effect” in the experiment on Rattus norvegicus [11] and 75% in the experiment on Rattus norvegicus [12]. This compound showed an inhibition in the experiment listed under Oryctolagus cuniculus [1] of 42%. Moreover, the inhibition result in experiment [4] and in experiment [5] was “inactive” in each case. Also, the IC50 in experiment [2] is 15.8 µM; in [3], 18 µM. Besides, the outcome in the experiment on HeLa [10] and in the experiment with HeLa [13] was inactive. In addition, the result with HeLa [14] was Active.

`COc1ccccc1OCC(O)CNCC1(c2cccs2)CCCCC1` (stereo not drawn) had an inhibition in the experiment filed under Oryctolagus cuniculus [1] of 40%. Further, the values for the IC50 in experiment [2] and in experiment [3] were 17.1 µM and 22 µM, respectively.

With `O=C(O)CSc1cc(NS(=O)(=O)c2cccs2)c2ccccc2c1O`, it took 3 µM to reach half-maximal inhibition in experiment [2] (IC50).

`COc1ccccc1OCC(O)CNCC1(c2cccs2)CCOCC1` (stereo not drawn): the inhibition result in the experiment listed under Oryctolagus cuniculus [1], in the experiment listed under Oryctolagus cuniculus [7] and in the experiment listed under Oryctolagus cuniculus [6] was “inactive” in each case.

Take `CC1(C)OC(=O)c2c1ccn(CCc1ccccc1)c2=O`: half-maximal inhibition in [3] (IC50) required 48 µM.

Take `OC(CNCC1(c2cccs2)CCOCC1)COc1ccccc1` (stereo not drawn): the inhibition in the experiment filed under Oryctolagus cuniculus [1] stood at 39%; in the experiment listed under Oryctolagus cuniculus [7], 31%; in the experiment filed under Oryctolagus cuniculus [6], 36%.

`OC(CNCC1(c2cccs2)CCOCC1)COc1ccc(Cl)cc1` (stereo not drawn) came in with an inhibition in the experiment listed under Oryctolagus cuniculus [1] of 53%. In experiment [2], this compound yielded an IC50 of 40 µM. The inhibition entry in the experiment listed under Oryctolagus cuniculus [6] was “inactive”.
